Experimental data reported in patent US10760052B2, “Method of inhibiting tau phosphorylation” (priority 2012, dated 2020).
Where two headings read alike, the source gives them in different places.

Molecular target: T1, mu opiate receptor (MOR) (Rattus norvegicus, UniProt P33535)
T1 construct: from tissue; host or cells: striatum (membrane preparation)
Type: biochemical

[1] = [35S]GTPγS binding to Gαo in striatal membranes, compound 0.1 μM
[2] = [35S]GTPγS binding to Gαo in striatal membranes, compound 1 μM
[3] = [35S]GTPγS binding to Gαo in striatal membranes, compound 1 μM plus 1 μM β-funaltrexamine (MOR antagonist)

T1 sequence (P33535 whole entry): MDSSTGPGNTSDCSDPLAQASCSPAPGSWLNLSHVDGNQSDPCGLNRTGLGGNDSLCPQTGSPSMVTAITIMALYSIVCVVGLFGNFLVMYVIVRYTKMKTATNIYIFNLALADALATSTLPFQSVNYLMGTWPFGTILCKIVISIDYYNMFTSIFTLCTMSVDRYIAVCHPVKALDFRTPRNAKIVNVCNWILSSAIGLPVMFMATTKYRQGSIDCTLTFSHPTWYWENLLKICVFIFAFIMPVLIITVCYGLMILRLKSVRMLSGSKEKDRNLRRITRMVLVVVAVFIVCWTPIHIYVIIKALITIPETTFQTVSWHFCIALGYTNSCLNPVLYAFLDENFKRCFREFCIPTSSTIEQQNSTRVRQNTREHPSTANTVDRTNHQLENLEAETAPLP

SMILES	% DAMGO (0.1 μM)	% DAMGO (1 μM)	% DAMGO + BFNA	Concentration of FLNA-Binding Compound as Agonist 0.1 μM [1]	Concentration of FLNA-Binding Compound as Agonist 1 μM [2]	Concentration of FLNA-Binding Compound as Agonist 1 μM + BFNA [3]	Concentration of FLNA-Binding Compound as Agonist 0.1 μM	Concentration of FLNA-Binding Compound as Agonist 1 μM	Concentration of FLNA-Binding Compound as Agonist 1 μM + BFNA
OC(COc1cccc(C(F)(F)F)c1)CN1CCc2ccccc2C1 (stereo not drawn) [Compound A0054]	44.4%	63.9%	348.9%	74.9%	159.2%	114.1%			
OC(COc1cccc(F)c1)CN1CCc2ccccc2C1 (stereo not drawn) [Compound A0055]	53.2%	78.4%	102.4%	89.8%	195.2%	33.5%			
CC1CCC(C(C)C)C(OCC(O)CN2CCC(=O)C(C)C2)C1 (stereo not drawn) [Compound A0056]	74.1%	56.2%	43.6%				115.6%	129.6%	17.4%
OC(COc1ccc(Br)c(F)c1)CN1CCc2ccccc2C1 (stereo not drawn) [Compound A0057]	79.6%	83.3%	112.3%	124.2%	192.1%	44.8%			
OC(COc1ccc(Br)c(F)c1)CN1CCCCC1 (stereo not drawn) [Compound A0058]	45.3%	106.0%	150.1%	70.7%	244.3%	59.9%			
OC(COc1ccc(Br)c(F)c1)CN1CCSCC1 (stereo not drawn) [Compound A0059]	63.5%	56.4%	214.8%				99.2%	129.9%	85.7%
CC1CCC(C(C)C)C(OCC(O)CN2CCC(=O)CC2)C1 (stereo not drawn) [Compound A0060]	63.9%	68.6%	35.8%	99.7%	158.2%	14.3%			
COc1c2c(cc3c1OCO3)CCN(CC(O)COC1CC(C)CCC1C(C)C)C2 (stereo not drawn) [Compound A0061]	70.7%	85.5%	26.8%	110.3%	197.1%	10.7%			
CC1CCC(C(C)C)C(OCC(O)CN2CCCc3ccccc32)C1 (stereo not drawn) [Compound A0068]	36.8%	35.2%	182.0%	73.9%	110.4%	98.1%			
COc1ccc(OCC(O)CN2CCOc3ccccc32)cc1 (stereo not drawn) [Compound A0076]	46.4%	78.6%	119.4%	79.8%	172.6%	41.2%			
COc1ccc(OCC(O)Cn2ccc3ccccc32)cc1 (stereo not drawn) [Compound A0077]	170.5%	132.3%	470.5%	300.1%	334.7%	103.5%			
CC1CCC(C(C)C)C(OCC(O)Cn2ccc3ccccc32)C1 (stereo not drawn) [Compound A0078]	124.9%	92.3%	274.2%				250.5%	289.9%	147.8%
CC1CCC(C(C)C)C(OCC(O)CN2CC(C)OC(C)C2)C1 (stereo not drawn) [Compound A3333]	88.9%	101.0%	136.7%	170.7%	328.3%	65.9%			
COc1c2c(cc3c1C(CC(=O)c1ccc(C#N)cc1)[N+](C)(C)CC3)OCO2 (stereo not drawn) [Compound B0001]	77.4%	74.9%	43.1%	128.2%	202.3%	28.0%			
COc1c2c(cc3c1C(CC(=O)c1ccc(O)c(C)c1)[N+](C)(C)CC3)OCO2 (stereo not drawn) [Compound B0002]	100.0%	81.1%	156.0%	165.7%	219.0%	101.4%			
COc1c2c(cc3c1C(CC(=O)c1ccc(N4CCOCC4)cc1)[N+](C)(C)CC3)OCO2 (stereo not drawn) [Compound B0004]	102.8%	85.8%	110.8%	170.3%	231.7%	72.0%			
COc1c2c(cc3c1C(CC(=O)c1ccncc1)[N+](C)(C)CC3)OCO2 (stereo not drawn) [Compound B0005]	50.5%	42.6%	68.6%	89.2%	110.4%	45.1%			
COc1c2c(cc3c1C(CC(=O)c1cccc(C(F)(F)F)c1)[N+](C)(C)CC3)OCO2 (stereo not drawn) [Compound B0006]	44.8%	47.5%	29.0%	77.0%	131.3%	18.6%			
COc1cc(F)ccc1C(=O)CC1c2c(cc3c(c2OC)OCO3)CC[N+]1(C)C (stereo not drawn) [Compound B0007]	95.3%	86.1%	98.2%	168.3%	223.3%	64.5%			
COc1cc(CC(=O)CC2c3c(cc4c(c3OC)OCO4)CC[N+]2(C)C)cc(OC)c1OC (stereo not drawn) [Compound B0008]	84.0%	101.9%	70.0%	148.3%	264.1%	46.0%			
COc1c2c(cc3c1C(CC(=O)Cc1ccc(Br)cc1)[N+](C)(C)CC3)OCO2 (stereo not drawn) [Compound B0011]	95.7%	78.7%	120.0%	158.6%	212.6%	78.0%			
COc1c2c(cc3c1C(CC(=O)Cc1ccc(C#N)cc1)[N+](C)(C)CC3)OCO2 (stereo not drawn) [Compound B0012]	97.8%	79.4%	278.5%	167.4%	212.0%	145.1%			
COc1ccc(CCC(=O)CC2c3c(cc4c(c3OC)OCO4)CC[N+]2(C)C)cc1 (stereo not drawn) [Compound B0016]	99.2%	79.9%	109.4%	167.7%	213.6%	72.2%			
COc1c2c(cc3c1C(CC(=O)CCc1ccc(Cl)cc1)[N+](C)(C)CC3)OCO2 (stereo not drawn) [Compound B0017]	58.9%	45.6%	75.2%	99.6%	122.0%	49.6%			
COc1c2c(cc3c1C(CC(=O)CCc1ccc(F)cc1)[N+](C)(C)CC3)OCO2 (stereo not drawn) [Compound B0018]	70.3%	53.5%	69.1%	118.8%	143.0%	45.6%			
COc1c2c(cc3c1C(CC(=O)/C=C/c1ccc(Cl)cc1)[N+](C)(C)CC3)OCO2 (stereo not drawn) [Compound B0019]	59.7%	96.0%	123.3%	101.0%	256.5%	81.4%			
CCOc1ccc(C(=O)CC2c3c(cc4c(c3OC)OCO4)CC[N+]2(C)C)cc1F (stereo not drawn) [Compound B0020]	30.1%	68.0%	47.8%	51.6%	181.6%	24.9%			
COc1ccc(C(=O)CC2c3c(cc4c(c3OC)OCO4)CC[N+]2(C)C)cc1C (stereo not drawn) [Compound B0021]	75.9%	104.7%	123.6%	126.9%	256.4%	42.9%			
